According to patent US20040162297A1, “Adenosine derivative in polymorph I form” (priority 2001, published 2004):

Test: stability of the polymorphic form at ambient temperatures
Type: physicochemical

Compound: CC(C)(C)c1nnc([C@H]2O[C@@H](n3cnc4c(Nc5ccc(Cl)cc5F)ncnc43)[C@H](O)[C@@H]2O)o1 [Polymorph I, (2S,3S,4R,5R)-2-(5-tert-butyl-[1,3,4]-oxadiazol-2-yl)-5-[6-(4-chloro-2-fluorophenylamino)-9H-purin-9-yl]-tetrahydrofuran-3,4-diol]
- stability at ambient temperatures: particular stability
